Test results reported in patent US11492325B2, “Compounds as inhibitors of sodium channels” (Human BioMolecular Research Institute, priority 2016, dated 2022).
Where two headings read alike, the source gives them in different places.

Experiments:
[1] = system: cardiomyocytes derived from hiPSCs from a LQTS3 patient; test: cells; settings: Homo sapiens, Cardiomyocyte; for EC50: read-out: LQT-EC50 (μM) Shortening, LQT-3 cardiomyocytes, AP shortening
[2] = system: normal human induced pluripotent stem cell (hiPSC) cardiomyocyte; settings: for WT-Fold Prolongation: APD; for WT-EC50 (μM) Prolongation: WT cardiomyocytes, AP prolongation
[3] = system: cardiomyocytes derived from hiPSCs from a LQTS3 patient
[4] = LQT-3 cardiomyocytes, cessation of beating

Compound | Cessation of Beating ([2]; normal hiPSC cardiomyocytes) | WT-EAD Dose ([2]; normal hiPSC cardiomyocytes) | LQT-Cessation Dose ([3]; LQT3 cardiomyocytes) | IC50 ([1]; read-out: LQT-IC50 (uM)-Shortening) | WT-Fold Prolongation ([2]; normal hiPSC cardiomyocytes) | LQT-Fold Shortening ([3]; LQT3 cardiomyocytes) | EC50 [1] | WT-EC50 (μM) Prolongation [2] | LQT-Fold Shortening ([3]; LQT-3 cardiomyocytes) | LQT-Cessation Dose [3, 4] | WT-Prolongation Dose ([2]; normal hiPSC cardiomyocytes) | LQT-Shortening Dose ([3]; LQT3 cardiomyocytes) | Cessation of Beating ([2]; human, 5 min) | LQT-Cessation Dose ([3]; human, 5 min)
Cc1cc(C)cc(OC[C@@H](N)C2CC2)c1.Cl [Compound 62] | 200 µM | 66 µM | 200 µM | 1.03 µM | 1.585 | 1.19 |  |  |  |  |  |  |  | 
Cc1ccccc1OCC(N)c1ccc2ccccc2c1 (stereo not shown) [Compound 133] |  |  |  |  |  |  | 8.83 µM | Does Not Prolong AP | 1.302 | 133 µM |  |  |  | 
Cc1cccc(C)c1OCC(N)c1ccc2ccccc2c1 (stereo not shown) [Compound 131] |  |  |  |  |  |  | 4.73 µM | Does Not Prolong AP | 1.309 | 133 µM |  |  |  | 
NC(COc1ccc2ccccc2c1)c1ccccc1 (stereo not shown) [Compound 130] |  |  |  |  |  |  | 8.7 µM | Does Not Prolong AP | 1.459 | 133 µM |  |  |  | 
c1ccc(CON=C(COc2ccccn2)c2ccccc2)cc1 [Compound 18] | None |  | None |  | None | None |  |  |  |  | None | None |  | 
CC(COC1CCCCC1)=NOCc1ccccc1 [Compound 45] | None |  | None |  | None | 1.37 |  |  |  |  | None |  |  | 
Cc1cccc(C)c1OCC(C)NCc1ccccc1 (stereo not shown) [Compound 42, 1-(2,6-dimethylphenoxy)-N-benzylpropan-2-amine] |  |  |  |  | 1.684 | 1.26 |  |  |  |  |  |  | 200 µM | 133 µM
COc1ccccc1OCC(C)N (stereo not shown) [Compound 52, 1-(2-Methoxyphenoxy)propan-2-amine] | None | 133 µM | None |  | 2.499 | None |  |  |  |  |  | None |  | 
Cc1cccc2c1OCC(C1CC1)NC2.Cl (stereo not shown) [Compound 74] | None | 133 µM | None |  | 2.633 | None |  |  |  |  |  | None |  | 
C[C@H](N)COc1ccccc1Cl [Compound 59] | None | 133 µM | None |  | 2.832 | None |  |  |  |  |  | None |  | 

Now from value to compound, other results behind:

Cessation of Beating ([2]; normal hiPSC cardiomyocytes) | WT-EAD Dose ([2]; normal hiPSC cardiomyocytes) | LQT-Cessation Dose ([3]; LQT3 cardiomyocytes) | Compound | IC50 ([1]; read-out: LQT-IC50 (uM)-Shortening) | WT-Fold Prolongation ([2]; normal hiPSC cardiomyocytes) | LQT-Fold Shortening ([3]; LQT3 cardiomyocytes) | EC50 [1] | WT-EC50 (μM) Prolongation [2] | LQT-Fold Shortening ([3]; LQT-3 cardiomyocytes) | LQT-Cessation Dose [3, 4] | WT-Prolongation Dose ([2]; normal hiPSC cardiomyocytes) | LQT-Shortening Dose ([3]; LQT3 cardiomyocytes) | Cessation of Beating ([2]; human, 5 min) | LQT-Cessation Dose ([3]; human, 5 min)
66 µM |  | 66 µM | COc1ccc(C(N)COc2c(C)cccc2C)cc1 (stereo not shown) [Compound 15, 2-(2,6-dimethylphenoxy)-1-(4-methoxyphenyl)ethanamine] |  | None | 1.42 |  |  |  |  | None |  |  | 
None | 133 µM | None | NC(COc1cc(C(F)(F)F)ccn1)c1ccccc1 (stereo not shown) [Compound 97, 1-phenyl-2-((4-(trifluoromethyl)pyridin-2-yl)oxy)ethan-1-amine] |  | None | 1.1 |  |  |  |  | None |  |  | 
133 µM |  | 66 µM | CNC(COc1cccc(C)c1C)c1ccccc1 (stereo not shown) [Compound 34, 2-(2,3-dimethylphenoxy)-N-methyl-1-phenylethanamine] |  | None | 1.29 |  |  |  |  | None |  |  | 
None |  | None | Cc1cccc(C)c1OCC(C)Nc1ccccc1 (stereo not shown) [Compound 43, 1-(2,6-dimethylphenoxy)-N-phenylpropan-2-amine] |  | None | None |  |  |  |  | None | None |  | 
